From publication PMC5906549, “Cathelicidin-Derived Antimicrobial Peptides Inhibit Zika Virus Through Direct Inactivation and Interferon Pathway” (Frontiers in Immunology, 2018)
Peptide text beside a SMILES is read from it.

How the values were obtained:
ZIKV strain MR766 [1] = assay: ZIKV RNA in infected Vero cells, peptide pre-treatment (real-time RT-PCR); format: cell-based, Zika virus; conditions: 2 h before ZIKV MOI 0.5, re-treated at 24 h, 48-h post-infection, RT-PCR normalized to GAPDH, N = 3
Procedure: Human fetal astrocytes were derived from a single-cell isolation process of fetal brain tissues as previously described ([25], [26]). Briefly, dissociated brain tissue was incubated with 0.25% trypsin for 30 min, followed by neutralization with 10% fetal bovine serum (FBS), and further dissociated by trituration. The single-cell suspension was cultured as adherent cells in DMEM/F12 (Thermo Fisher Scientific, Waltham, MA, USA), supplemented with 10% FBS, penicillin (50 units/mL), and streptomycin (50 µg/mL) (Thermo Fisher Scientific). […] Vero cells (ATCC, CCL-81), an African green monkey kidney cell line, were maintained in Dulbecco’s Modified Eagle Medium (DMEM) with 5% FBS. Experiments with ZIKV were performed exclusively inside a BioSafety Level 2 (laboratory). All procedures utilized in this study were approved by the Institutional Biosafety Committee (IBC 16-05-013BL2) and followed biosafety level II practices as shown in National Institutes of health (NIH) Guideline Appendix G-II-B. ZIKV strain MR766 (Uganda, 1947) was obtained from ZeptoMetrix Corp., Buffalo, NY, USA, and propagated in Vero cells. ZIKV infection of the Vero cells and fetal astrocytes was previously characterized ([27]) and all infections in the current studies were at the MOI of 0.5.
Total mRNA was isolated with TRIzol Reagent (Thermo Fisher Scientific) and RNeasy Mini Kit (QIAGEN Inc., Valencia, CA, USA) following the manufacturer’s recommendations. Two real-time RT-PCR methods were used for the current studies. First, SYBR Green-based RT-PCR assay was used to determine intracellular ZIKV RNA in Vero cells. For this assay, reverse transcription was performed using Verso cDNA synthesis Kit (Thermo Fisher Scientific) and 1 µg of total RNA in a 15-µL final volume. The RT-PCR analyses were performed using 7.5-µL SYBR Green PCR Master Mix (Thermo Fisher Scientific) with 0.5-µL cDNA, 1.5-µL H2O, 5.5-µL oligonucleotide primer pairs at 10 µM. […] GG-3. PCR program: 1, 50°C for 2 min; 2, 95°C for 2 min; 3, 95°C for 15 s; 4, specific annealing temperature for 15 s; 5, 72°C for 1 min. Steps 2–4 were repeated 40 times. All samples were amplified in triplicate for analysis. Relative ZIKV RNA levels were determined and standardized with a GAPDH internal control using comparative ΔΔCT method ([35]). Second, TaqMan-based RT-PCR assay was used to determine intracellular ZIKV RNA and other gene expressions in Figures 3–6 and extracellular ZIKV RNA in Figure 3. The TaqMan assay was performed in a StepOne^TM Real-Time PCR system (Thermo Fisher Scientific). Primers used for TaqMan real-time RT-PCR were all from the Thermo Fisher Scientific, which included ZIKV (forward sequence: 5-[…]-3, reverse sequence: 5- […]-3, and probe sequence: 5′-[…]-3), IFN-α2 (Hs00265051_s1), IFN-β1 (Hs01077958_s1), eukaryotic 18-s rRNA (Hs99999901_s1), β-actin (Hs99999903_m1), and GAPDH (Catalog number: 4310884E). Relative ZIKV mRNA levels were determined and standardized with a GAPDH or 18-s rRNA endogenous control using comparative ΔΔCT method ([35]). […] For ZIKV in supernatants, RNA was extracted from the supernatants through TRIzol™ LS Reagent (Thermo Fisher Scientific, 10296028) following the manufacturer’s manual. […] Quantitative genomic RNA from ZIKV (NR-1838DQ, ATCC) was used as a standard to calculate viral copies.

[2] = Cell viability MTS assay in Vero cells; conditions: African green monkey
Procedure: Cell viability was examined by the CellTiter 96 ®Aqueous One Solution Cell Proliferation Assay (Promega, Madison, WI, USA). Vero cells and astrocytes were seeded into 96-well tissue culture plates (Fisher Scientific) and treated with fresh growth medium containing different concentrations of each peptide for 2 or 4 days at 37°C. At the experimental end point, MTS [3-(4,5-dimethylthiazol-2-yl)-5-(3-carboxymethoxyphenyl)-2-(4-sulfophenyl)-2H-tetrazolium] was added to the cultures and incubated for 1 h. The absorbance at 490 nm was recorded through BioTek Gen5 data analysis software (Winooski), VT, optical density (OD) values were used as a representation of cell viability.
(A) Vero cells were treated with doses of peptides ranging from 1 to 50 µM. After 24 h, the cultures were washed and treated with same doses of peptides in fresh medium for another 24 h. Cell viability was determined by a colorimetric MTS assay. Results shown are the averages ±SD of experiments performed in triplicate. Data were analyzed by non-linear regression. The EC50 was assessed for each of the antimicrobial peptides. (B) Vero cells were treated with doses of peptides ranging from 0.4 to 10 µM for 2 h then infected with ZIKV at the MOI of 0.5. After 24 h, the cultures were washed and treated with same doses of peptides in fresh medium for another 24 h. ZIKA RNA was detected in total cellular RNA through real-time RT-PCR. Data were normalized to GAPDH and presented as fold change (in log scale) compared with ZIKV group. ** p < 0.01 and *** p < 0.001, as compared with the ZIKV group without the peptide treatment (ANOVA, N = 3).
A, B) Vero cells were treated with 10 µM AMPs for 2 days or 4 days as outlined in the figure. For 4-day treatment, Vero cells were repeatedly treated with 10 µM AMPs at 2-day post-treatment. At the experimental end point, cell viability was determined by a colorimetric MTS assay CellTiter 96® AQueous One Solution Assay (Promega, Madison, WI) based on the manufacture’s instruction. Results were normalized as percentage of cell viability in control astrocytes. CTL, control. * denotes p < 0.05, ** denotes p < 0.01, *** denotes p < 0.001 as compared to the control group without peptide treatment (ANOVA, N = 3).

ZIKV strain MR766 [3] = assay: ZIKV RNA in astrocytes with recombinant IFN-α or with inhibition of type-I IFN signaling; format: cell-based, Zika virus; conditions: astrocytes pretreated 2 h with anti-IFN-α neutralizing antibodies (200 neutralizing units/mL) or 1-µM fludarabine, then AMPs 2 h, ZIKV MOI 0.5; RNA at 24 h
Procedure: Total mRNA was isolated with TRIzol Reagent (Thermo Fisher Scientific) and RNeasy Mini Kit (QIAGEN Inc., Valencia, CA, USA) following the manufacturer’s recommendations. Two real-time RT-PCR methods were used for the current studies. First, SYBR Green-based RT-PCR assay was used to determine intracellular ZIKV RNA in Vero cells. For this assay, reverse transcription was performed using Verso cDNA synthesis Kit (Thermo Fisher Scientific) and 1 µg of total RNA in a 15-µL final volume. The RT-PCR analyses were performed using 7.5-µL SYBR Green PCR Master Mix (Thermo Fisher Scientific) with 0.5-µL cDNA, 1.5-µL H2O, 5.5-µL oligonucleotide primer pairs at 10 µM. […] GG-3. PCR program: 1, 50°C for 2 min; 2, 95°C for 2 min; 3, 95°C for 15 s; 4, specific annealing temperature for 15 s; 5, 72°C for 1 min. Steps 2–4 were repeated 40 times. All samples were amplified in triplicate for analysis. Relative ZIKV RNA levels were determined and standardized with a GAPDH internal control using comparative ΔΔCT method ([35]). […] Relative ZIKV mRNA levels were determined and standardized with a GAPDH or 18-s rRNA endogenous control using comparative ΔΔCT method ([35]). […] Quantitative genomic RNA from ZIKV (NR-1838DQ, ATCC) was used as a standard to calculate viral copies.

## CC[C@H](C)[C@H](NC(=O)[C@H](CCCCN)NC(=O)[C@H](CCC(=O)O)NC(=O)[C@H](CCCCN)NC(=O)[C@H](CO)NC(=O)[C@H](CCCCN)NC(=O)[C@H](CCCNC(=N)N)NC(=O)[C@H](Cc1ccccc1)NC(=O)[C@H](Cc1ccccc1)NC(=O)[C@H](CC(=O)O)NC(=O)CNC(=O)[C@H](CC(C)C)NC(=O)[C@@H](N)CC(C)C)C(=O)NCC(=O)N[C@@H](CCCCN)C(=O)N[C@@H](CCC(=O)O)C(=O)N[C@@H](Cc1ccccc1)C(=O)N[C@@H](CCCCN)C(=O)N[C@@H](CCCNC(=N)N)C(=O)N[C@H](C(=O)N[C@H](C(=O)N[C@@H](CCC(N)=O)C(=O)N[C@@H](CCCNC(=N)N)C(=O)N[C@H](C(=O)N[C@@H](CCCCN)C(=O)N[C@@H](CC(=O)O)C(=O)N[C@@H](Cc1ccccc1)C(=O)N[C@@H](CC(C)C)C(=O)N[C@@H](CCCNC(=N)N)C(=O)N[C@@H](CC(N)=O)C(=O)N[C@@H](CC(C)C)C(=O)N[C@H](C(=O)N1CCC[C@H]1C(=O)N[C@@H](CCCNC(=N)N)C(=O)N[C@H](C(=O)N[C@@H](CCC(=O)O)C(=O)N[C@@H](CO)C(=O)O)[C@@H](C)O)C(C)C)[C@@H](C)CC)C(C)C)[C@@H](C)CC [LL-37, reference compound]
ZIKV strain MR766 [1]; peptide 0.4 µM
  ZIKV RNA compared with untreated controls: significantly decreased ZIKV RNA
ZIKV strain MR766 [1]; peptide 2 µM
  ZIKV RNA compared with untreated controls: significantly decreased ZIKV RNA

## CC[C@H](C)[C@H](N)C(=O)N[C@@H](CCCCN)C(=O)N[C@@H](Cc1c[nH]c2ccccc12)C(=O)N[C@@H](CCCCN)C(=O)N[C@@H](CCCCN)C(=O)N[C@@H](CC(C)C)C(=O)N[C@@H](CC(C)C)C(=O)N[C@@H](CCCNC(=N)N)C(=O)N[C@@H](C)C(=O)N[C@@H](C)C(=O)N[C@@H](CCCCN)C(=O)N[C@@H](CCCNC(=N)N)C(=O)N[C@H](C(=O)N[C@@H](CC(C)C)C(=O)O)[C@@H](C)CC [DASamP2] (H-IKWKKLLRAAKRIL-OH)
[2]
  EC50 at 48 h: > 50 µM
ZIKV strain MR766 [1]; peptide 2 µM
  ZIKV RNA compared with untreated controls: significantly decreased ZIKV RNA

## Nc1nc(F)nc2c1ncn2[C@@H]1O[C@H](CO)[C@@H](O)[C@@H]1O [fludarabine, Fludarabine]
ZIKV strain MR766 [3]
  Effect on GF-17- and BMAP-18-mediated ZIKV inhibition: dampened but did not completely block

## CC[C@@H](C)[C@@H](NC(=O)CN)C(=O)N[C@H](CCCCN)C(=O)N[C@H](CCC(=O)O)C(=O)N[C@H](Cc1ccccc1)C(=O)N[C@H](CCCCN)C(=O)N[C@H](CCCNC(=N)N)C(=O)N[C@@H](C(=O)N[C@@H](C(=O)N[C@H](CCC(N)=O)C(=O)N[C@H](CCCNC(=N)N)C(=O)N[C@@H](C(=O)N[C@H](CCCCN)C(=O)N[C@H](CC(=O)O)C(=O)N[C@H](Cc1ccccc1)C(=O)N[C@H](CC(C)C)C(=O)N[C@H](CCCNC(=N)N)C(=O)N[C@H](CC(N)=O)C(=O)N[C@H](CC(C)C)C(=O)N[C@@H](C(=O)O)C(C)C)[C@H](C)CC)C(C)C)[C@H](C)CC [GI-20D-form]
[2]
  EC50 at 48 h: 4 µM
ZIKV strain MR766 [1]; peptide 0.4 µM
  ZIKV RNA compared with untreated controls: significantly decreased ZIKV RNA
ZIKV strain MR766 [1]; peptide 2 µM
  ZIKV RNA compared with untreated controls: significantly decreased ZIKV RNA

## CC[C@H](C)[C@H](NC(=O)CN)C(=O)N[C@@H](CCCCN)C(=O)N[C@@H](CCC(=O)O)C(=O)N[C@@H](Cc1ccccc1)C(=O)N[C@@H](CCCCN)C(=O)N[C@@H](CCCNC(=N)N)C(=O)N[C@H](C(=O)N[C@H](C(=O)N[C@@H](CCC(N)=O)C(=O)N[C@@H](CCCNC(=N)N)C(=O)N[C@H](C(=O)N[C@@H](CCCCN)C(=O)N[C@@H](CC(=O)O)C(=O)N[C@@H](Cc1ccccc1)C(=O)N[C@@H](CC(C)C)C(=O)N[C@@H](CCCNC(=N)N)C(=O)N[C@@H](CC(N)=O)C(=O)N[C@@H](CC(C)C)C(=O)N[C@H](C(=O)O)C(C)C)[C@@H](C)CC)C(C)C)[C@@H](C)CC [GI-20]
[2]
  EC50 at 48 h: > 50 µM
ZIKV strain MR766 [1]; peptide 0.4 µM
  ZIKV RNA compared with untreated controls: significantly decreased ZIKV RNA
ZIKV strain MR766 [1]; peptide 2 µM
  ZIKV RNA compared with untreated controls: significantly decreased ZIKV RNA
